Source: PubChem BioAssay AID330 (DTP/NCI, 2004)
Several values for one entry are separate records, joined by “and”; a condition that tells them apart may be missing. Identical values can stand only once. Inconclusive results and toxic doses are left out.

System: P388 leukemia ip, CD2F1 mice, survival T/C
Experiment: NCI In Vivo Anticancer Drug Screen. Data for tumor model P388 Leukemia (intraperitoneal) in CD2F1 (CDF1) mice
Settings: endpoint: median survival time, higher = longer survival
Summary of the method: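 Mice carrying the transplanted tumor received test compound or vehicle. Survival was recorded in each group, and the value is the treated-group measurement divided by that of the vehicle-treated control group.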

[1] = dose: 50.0 mg/kg/injection, schedule: Q01DX005 (ip), vehicle: Klucel (hydroxypropylcellulose) (HPC)
[2] = dose: 100.0 mg/kg/injection, schedule: Q01DX005 (ip), vehicle: Klucel (hydroxypropylcellulose) (HPC)
[3] = dose: 200.0 mg/kg/injection, schedule: Q01DX005 (ip), vehicle: Klucel (hydroxypropylcellulose) (HPC)
[4] = dose: 50.0 mg/kg/injection, schedule: Q01DX009 (ip), vehicle: Klucel (hydroxypropylcellulose) (HPC)
[5] = dose: 100.0 mg/kg/injection, schedule: Q01DX009 (ip), vehicle: Klucel (hydroxypropylcellulose) (HPC)
[6] = dose: 60.0 mg/kg/injection, schedule: Q01DX005 (ip), vehicle: saline with Tween-80
[7] = dose: 120.0 mg/kg/injection, schedule: Q01DX005 (ip), vehicle: saline with Tween-80

**Q.** `C=CCCN1CC2CC(C1)N1CCCCC1C2=O` (centres undefined) was tested. Which T/C (dose: 5.25 mg/kg/injection, schedule: Q01DX005 (ip), vehicle: Klucel (hydroxypropylcellulose) (HPC)) did it give?
**A.** Its T/C is 102 % of control.

**Q.** What about the T/C (dose: 10.5 mg/kg/injection, schedule: Q01DX005 (ip), vehicle: Klucel (hydroxypropylcellulose) (HPC)) of the same compound?
**A.** Its T/C is 103 % of control.

**Q.** What about the T/C (dose: 21.0 mg/kg/injection, schedule: Q01DX005 (ip), vehicle: Klucel (hydroxypropylcellulose) (HPC)) of the same compound?
**A.** Its T/C is 100 % of control.

**Q.** What about the T/C (dose: 42.0 mg/kg/injection, schedule: Q01DX005 (ip), vehicle: Klucel (hydroxypropylcellulose) (HPC)) of the same compound?
**A.** Its T/C is 103 % of control.

**Q.** With `CN1CN(C)CN(Cc2ccc([N+](=O)[O-])cc2)C1` as the compound, how does the T/C (dose: 25.0 mg/kg/injection, schedule: Q01DX005 (ip), vehicle: Klucel (hydroxypropylcellulose) (HPC)) read?
**A.** The T/C was 93 % of control.

**Q.** What about the T/C [1] of the same compound?
**A.** The T/C was 97 % of control.

**Q.** What about the T/C [2] of the same compound?
**A.** Its T/C is 94 % of control.

**Q.** What about the T/C [3] of the same compound?
**A.** The T/C was 91 % of control.

**Q.** `CC1CN1P(=O)(N1CC=CCC1)N1CC1C` (centres undefined) was tested. Which T/C (dose: 22.0 mg/kg/injection, schedule: Q04DX003 (ip), vehicle: saline) did it give?
**A.** The T/C was 100 % of control.

**Q.** And the T/C (dose: 33.0 mg/kg/injection, schedule: Q01DX009 (ip), vehicle: saline)?
**A.** Its T/C is 150 % of control.

**Q.** And the T/C (dose: 33.0 mg/kg/injection, schedule: Q04DX003 (ip), vehicle: saline)?
**A.** Its T/C is 113 % of control.

**Q.** And the T/C (dose: 50.0 mg/kg/injection, schedule: Q04DX003 (ip), vehicle: saline)?
**A.** Its T/C is 122 % of control.

**Q.** What about the T/C (dose: 75.0 mg/kg/injection, schedule: Q04DX003 (ip), vehicle: saline) of the same compound?
**A.** The T/C was 150 % of control.

**Q.** `O=S(=O)(O)c1ccc(-c2nnc(-c3ccccn3)nc2-c2ccc(S(=O)(=O)O)o2)o1` was tested. Which T/C (dose: 60.0 mg/kg/injection, schedule: Q01DX005 (ip), vehicle: saline) did it give?
**A.** Its T/C is 102 % of control.

**Q.** And the T/C (dose: 120.0 mg/kg/injection, schedule: Q01DX005 (ip), vehicle: saline)?
**A.** The T/C was 97 % of control.

**Q.** And the T/C (dose: 240.0 mg/kg/injection, schedule: Q01DX005 (ip), vehicle: saline)?
**A.** The T/C was 102 % of control.

**Q.** Which results are given for `CC(/C=C/c1ccccc1)=N\NC(=O)c1ccc(O)cc1`?
**A.** T/C [1]: 101 % of control; T/C [2]: 97 % of control; T/C [3]: 93 % of control

**Q.** How did the T/C (dose: 100.0 mg/kg/injection, schedule: Q01DX009 (ip), vehicle: saline with Tween-80) turn out when `C/C(CC(c1ccccc1)N1CCc2ccccc2C1)=N/O` (centres undefined) was run?
**A.** The T/C was 100 % of control.

**Q.** And the T/C (dose: 200.0 mg/kg/injection, schedule: Q01DX009 (ip), vehicle: saline with Tween-80)?
**A.** Its T/C is 100 % of control.

**Q.** And the T/C (dose: 400.0 mg/kg/injection, schedule: Q01DX009 (ip), vehicle: saline with Tween-80)?
**A.** Its T/C is 100 % of control.

**Q.** How did the T/C (dose: 6.25 mg/kg/injection, schedule: Q01DX009 (ip), vehicle: saline) turn out when `OCC[N-]CC[N-]CCO.[Cl][Co][Cl]` was run?
**A.** The T/C was 103 % of control.

**Q.** What about the T/C (dose: 12.5 mg/kg/injection, schedule: Q01DX009 (ip), vehicle: saline) of the same compound?
**A.** Its T/C is 120 % of control.

**Q.** What about the T/C (dose: 25.0 mg/kg/injection, schedule: Q01DX009 (ip), vehicle: saline) of the same compound?
**A.** Its T/C is 120 % of control.

**Q.** What about the T/C (dose: 50.0 mg/kg/injection, schedule: Q01DX009 (ip), vehicle: saline) of the same compound?
**A.** The T/C was 122 % of control.

**Q.** And the T/C (dose: 100.0 mg/kg/injection, schedule: Q01DX009 (ip), vehicle: saline)?
**A.** Its T/C is 92 % of control.

**Q.** `O=C(Nc1ccccc1)Nc1c2c(nc3ccccc13)CCCCC2` was tested. Which T/C (dose: 50.0 mg/kg/injection, schedule: Q01DX005 (ip), vehicle: saline with Tween-80) did it give?
**A.** Its T/C is 86 % of control.

**Q.** What about the T/C (dose: 100.0 mg/kg/injection, schedule: Q01DX005 (ip), vehicle: saline with Tween-80) of the same compound?
**A.** The T/C was 89 % of control.

**Q.** And the T/C (dose: 200.0 mg/kg/injection, schedule: Q01DX005 (ip), vehicle: saline with Tween-80)?
**A.** Its T/C is 90 % of control.

**Q.** How did the T/C [4] turn out when `CCN(CC)Cc1c(C)[nH]c2c(ccc3c2ccc2c(=O)c(CN(CC)CC)c(C)[nH]c23)c1=O` was run?
**A.** The T/C was 93 % of control.

**Q.** What about the T/C [5] of the same compound?
**A.** The T/C was 91 % of control.

**Q.** What about the T/C (dose: 200.0 mg/kg/injection, schedule: Q01DX009 (ip), vehicle: Klucel (hydroxypropylcellulose) (HPC)) of the same compound?
**A.** The T/C was 96 % of control.

**Q.** With `CN1CCC/C1=C/C(=O)c1ccc(Cl)cc1` as the compound, how does the T/C (dose: 100.0 mg/kg/injection, schedule: Q04DX003 (ip), vehicle: saline) read?
**A.** The T/C was 102 % of control and 98 % of control.

**Q.** What about the T/C (dose: 200.0 mg/kg/injection, schedule: Q04DX003 (ip), vehicle: saline) of the same compound?
**A.** The T/C was 111 % of control and 120 % of control.

**Q.** And the T/C (dose: 400.0 mg/kg/injection, schedule: Q04DX003 (ip), vehicle: saline)?
**A.** The T/C was 92 % of control.

**Q.** `Nc1ncc(C2CO2)c(-c2ccccc2)n1` (centres undefined) was tested. Which T/C (dose: 25.0 mg/kg/injection, schedule: Q01DX009 (ip), vehicle: Klucel (hydroxypropylcellulose) (HPC)) did it give?
**A.** The T/C was 94 % of control.

**Q.** What about the T/C [4] of the same compound?
**A.** The T/C was 103 % of control.

**Q.** What about the T/C [5] of the same compound?
**A.** Its T/C is 108 % of control.

**Q.** Which T/C [6] does the source give for `CN1NC(c2ccccc2)=C(C#N)C(=O)CC1c1cccs1` (centres undefined) here?
**A.** The T/C was 95 % of control.

**Q.** What about the T/C [7] of the same compound?
**A.** The T/C was 88 % of control.

**Q.** And the T/C (dose: 240.0 mg/kg/injection, schedule: Q01DX005 (ip), vehicle: saline with Tween-80)?
**A.** Its T/C is 96 % of control.

**Q.** Which T/C [6] does the source give for `CN(C)Cc1[nH]c2ccccc2c1Sc1ccccc1` here?
**A.** Its T/C is 100 % of control.

**Q.** And the T/C [7]?
**A.** The T/C was 119 % of control.
